Experimental data taken from patent US10322187B2, “Reduced toxicity molecular conjugates of anti-fungal agents” (Lehigh University, priority 2015, dated 2019).
Values after ≈ are worked out from the molar mass of the structure shown. “Also recorded” adds a separate entry of the source. Read-outs that look alike come from different tables or passages of the source.

What was measured:
[1] = system: C. albicans, C. glabrata, C. neoformans, and C. gatti; assay: In vitro antifungal activity, general statements on the four microbes; type: cell-based; conditions: on a molar basis
Procedure: (§1) A similar sequence of reactions was carried out using lysine dicholamide in place of cholic acid afforded VJ-1147 of Table 2. To assess the antifungal properties of the diwalled VJ-1138 (Table 2) and 2a of Table 3, their in vitro activities were examined against four clinically relevant microbes, i.e., C. albicans, C. glabrata, C. neoformans, and C. gatti (Table 4).
(§2) Minimum inhibitory concentrations (MIC) and minimum fungicidal concentrations (MFC) are the lowest concentrations that are required for completely inhibiting growth, and killing at least 99% of the fungi, respectively.

C. glabrata = assay: Antifungal activities, MIC/MFC; type: cell-based; conditions: C. glabrata
Procedure: as §1, §2
(§3) The above molecules were tested for antifungal activity. Minimum inhibitory concentrations (MIC) and minimum fungicidal concentrations (MFC) are the lowest concentrations that are required for completely inhibiting growth, and killing at least 99% of the fungi, respectively. As is apparent from Table 4 below, there is a general trend; i.e., increased antifungal activity is observed as the length of the hydrocarbon chain that separates the facial amphiphile from the Amphotericin B moiety is decreased.

C. gatti = assay: Antifungal activities, MIC/MFC; type: cell-based; conditions: C. gatti
Procedure: as §1, §2, §3

C. albicans = assay: Antifungal activities, MIC/MFC; type: cell-based; conditions: C. albicans
Procedure: as §1, §2, §3

C. neoformans = assay: Antifungal activities, MIC/MFC; type: cell-based; conditions: C. neoformans
Procedure: as §1, §2, §3

Cryptococcus neoformans = assay: Cryptococcosis mouse model, brain and lung tissue burden; type: in vivo, mice
Procedure: Cryptococcosis mice are infected via tail vein injection of 5×10^4 C. neoformans cells. Inocula are verified by quantitative culture. Animals are identified by temporary ink marking, assigned to groups of 10 mice. Test compounds will be dosed starting on the day of infection. Initial studies will employ i.v., i.p. or oral (gavage) dosing (depending on the compound and the vehicle). Antifungal compounds are given for a period of 7 days. […] On day 8, the lung and brain are evaluated by quantitative culture per gram of tissue, by weighing organs and culturing serially diluted homogenates. These tissue burden studies permit detection of drug efficacy that may not be evident by using a survival endpoint.
The mice were then sacrificed 7 days later for quantitative culture of brain and lung, with cryptococcal cells per gram tissue being expressed as logarithmic values (log 10). Mean values for each group were compared using the t-test.

HEK293T cells = assay: Inhibition of cell growth, MTT cell viability; type: cell-based, human; conditions: 1, 10, 50, and 100 μM; FIG. 4
Procedure: Human embryonic kidney HEK293 cells were cultured in Dulbecco's modified Eagle's medium (DMEM supplemented with 10% FBS, 100 U/mL penicillin, and 0.1 mg/mL SI-10 streptomycin) in a humidified atmosphere of 5% CO2 at 37° C.
HEK293T cells were seeded in 96-well plates at a density of 6,000 cells/well and incubated overnight. Before treatment, compounds aliquots were solubilized in DMSO to obtain 10 mM stock solutions. Appropriate volumes of these stock solutions were added to DMEM media so the final concentration of DMSO is equal to 1%. After removal of cell media, 50 μL of treatment solutions were added to each well and incubated at 37° C. for 2 h. After treatment, the media was removed, and 100 μL of complete medium was added to each well before returning the plate to the incubator. Cell viability was determined after 72 h using the colorimetric MTT assay. Briefly, 10 μL of a 5 mg/mL MTT stock solution was added to the treated cells and incubated for 2 h at 37° C. The resulting formazan crystals were solubilized in 200 μL of DMSO, and the absorbance was measured at 580 nm using an Infinite 200 PRO microplate reader (Tecan). Cell viability was calculated against control cells treated with the vehicle in DMEM.

sheep red blood cells = assay: Hemolysis measurements, release of hemoglobin; type: cell-based
Procedure: Sheep Red Blood Cells, 10%, in saline (Innovative Research, Novi, Mich.), were diluted in saline (pH 7.4) to a concentration of 4%, which corresponds to 4×10^7 cells/mL. All measurements were carried out in duplicate. Solutions of Amphotericin B (Sigma-Aldrich) were prepared by adding 10 μL of a DMSO solution containing a given concentration of the antibiotic (i.e., ranging from 0.2 mM to 50 mM) to 490 μL of PBS. After the resulting solution was vortex mixed for 30 seconds (s) it was incubated at 37° C. for 15 min. The resulting solution of antibiotic (500 μL) was then mixed with 500 μL of the 4% erythrocyte dispersion at 37° C. in a 1 mL plastic centrifuge vial to give a dispersion that was vortex mixed at slow rate for 5 s. After 1 h of incubation at 37° C., all samples were centrifuged (1500 g, Eppendorf centrifuge 5415C, 5000 rpm) at rt for 5 min. The supernatant (˜0.7 mL) from each plastic vial was carefully separated from sediment using a disposable glass pipette and quickly transferred to test tube. A volume of 50 μL of this supernatant was then transferred to a UV cell containing 500 μL of PBS that was maintained at 37° C. The UV spectrum was then scanned (450-650 nm) and the absorbance at 575 nm used to determine the extent of hemolysis. The extent of 0% and 100% of hemolysis was obtained from A575 values of experiments that were run in absence of AmphB (control, [A575,]o) and in presence, 100 μM AmphB ([A575]max), respectively.

[2] = Critical aggregation concentration (CAC) by UV absorptivity; type: physicochemical; conditions: PBS, 37° C., absorptivity at 409 nm
Excerpt: If one lets: (i) T, m, and P represent the total, the monomeric, and the aggregate concentrations of this macrolide, respectively; (ii) ε represent the apparent molar absorptivity; and (iii) εm and εp represent the molar absorptivity for the monomeric and aggregate components, respectively, then it can be shown that ε=εp+(εm−εp)m/T. See Yamashita K, Janout V, Bernard E M, Armstrong D, and Regen, S L. Micelle/monomer control over the membrane disrupting properties of an amphiphilic antibiotic. J. Am. Chem. Soc. 117 (1995) 6249-6253. At concentrations that are in excess of its CAC, m is constant, and ε is expected to be inversely proportional to T. Thus, by measuring the apparent molar absorptivity as a function of the reciprocal of the concentration of VJ-1138, its CAC value is estimated to be 0.9 μM (from the intercept of two straight lines).
Determination of Critical Aggregation Concentration (CAC) of AmphB and molecular conjugates. Solutions of AmphB and molecular conjugates in DMSO (Sigma-Aldrich) were prepared having a concentration of 1.00 mM. […] The UV spectrum was then recorded in the range of 250-550 nm. The absorbance at 408 nm was plotted as a function of the reciprocal value of the concentration of AmB and the critical aggregation concentration of the molecular conjugates was then determined, graphically.

[3] = t-test, 70 mg/kg/day intraperitoneal

CC1OC(O[C@H]2/C=C/C=C/C=C/C=C/C=C/C=C/C=C/[C@H](C)[C@@H](O)[C@@H](C)[C@H](C)OC(=O)C[C@H](O)C[C@H](O)CC[C@@H](O)[C@H](O)C[C@H](O)C[C@]3(O)C[C@H](O)[C@@H](C(=O)NCCCCCCCC(=O)N(CCCCNC(=O)CC[C@@H](C)C4CCC5C6C(O)CC7CC(O)CCC7(C)C6CC(O)C54C)CCCNC(=O)CC[C@@H](C)C4CCC5C6C(O)CC7CC(O)CCC7(C)C6CC(O)C54C)[C@H](C2)O3)C(O)C(N)C1O (stereo partly shown) [VJ-1138]
antifungal potency compared with AmphB [1]: approaches that of the native antibiotic; also recorded: approaching that of AmphB
MIC (C. glabrata; Table 2, 2nd value in brackets, read-out: minimum inhibitory concentration (MIC)): 4 µM (≈ 7.89 µg/mL)
MFC (C. glabrata; first Table 4): 4 µM (≈ 7.89 µg/mL)
MIC (C. glabrata; first Table 4, read-out: MIC): 2 µM (≈ 3.95 µg/mL)
MIC (C. gatti; Table 2, 4th value in brackets, read-out: minimum inhibitory concentration (MIC)): 3 µM (≈ 5.92 µg/mL)
MFC (C. gatti; first Table 4, read-out: MFC): 2 µM (≈ 3.95 µg/mL)
MIC (C. gatti; first Table 4, read-out: MIC): 1 µM (≈ 1.97 µg/mL)
MIC (C. albicans; Table 2, 1st value in brackets, read-out: minimum inhibitory concentration (MIC)): 2 µM (≈ 3.95 µg/mL)
MIC (C. albicans; first Table 4, lowest concentration completely inhibiting growth, read-out: MIC): 1 µM (≈ 1.97 µg/mL)
MFC (C. albicans; first Table 4, lowest concentration killing at least 99% of the fungi, read-out: MFC): 2 µM (≈ 3.95 µg/mL)
MIC (C. neoformans; Table 2, 3rd value in brackets, read-out: minimum inhibitory concentration (MIC)): 2 µM (≈ 3.95 µg/mL)
MFC (C. neoformans; first Table 4, read-out: MFC): 2 µM (≈ 3.95 µg/mL)
MIC (C. neoformans; first Table 4, read-out: MIC): 1 µM (≈ 1.97 µg/mL)
mean lung burden (Cryptococcus neoformans; CD1 male mice, intraperitoneal DMSO solution, 70 mg/kg/day, 7 days, untreated 6.34): 5.10 log 10 cryptococcal cells per
mean brain burden (Cryptococcus neoformans; CD1 male mice, intraperitoneal DMSO solution, 70 mg/kg/day, 7 days, untreated 8.22): 7.66 log 10 cryptococcal cells per
p, brain tissue burden compared to untreated mice (Cryptococcus neoformans; [3]): 0.0083
p, lung tissue burden compared to untreated mice (Cryptococcus neoformans; [3]): < 0.0001
toxicity toward HEK293t cells compared with AmphB (HEK293T cells): dramatically reduced
EH50 relative to AmphB (sheep red blood cells): approximately 2 orders of magnitude
hemolytic activity relative to AmphB (sheep red blood cells): dramatically reduced
EH50, concentration required to induce 50% release of hemoglobin from erythrocytes (sheep red blood cells; pH 7.4): 375 µM
critical aggregation concentration (CAC) [2]: 0.9 µM
